US8940766B2, “Methods for preventing and/or treating lysosomal storage disorders” (Amicus Therapeutics, Inc., priority 2009, dated 2015)
Several values for one entry are separate records, joined by “and”; a condition that tells them apart may be missing. Equal values may be shown once.

Columns and labels:
GCase [1] = molecular target: T1, GCase (Homo sapiens, UniProt P04062); assay: Concentration-dependent increase in GCase activity (EC50, Emax); format: cell-based; conditions: result in words
T1 sequence (P04062 40-536): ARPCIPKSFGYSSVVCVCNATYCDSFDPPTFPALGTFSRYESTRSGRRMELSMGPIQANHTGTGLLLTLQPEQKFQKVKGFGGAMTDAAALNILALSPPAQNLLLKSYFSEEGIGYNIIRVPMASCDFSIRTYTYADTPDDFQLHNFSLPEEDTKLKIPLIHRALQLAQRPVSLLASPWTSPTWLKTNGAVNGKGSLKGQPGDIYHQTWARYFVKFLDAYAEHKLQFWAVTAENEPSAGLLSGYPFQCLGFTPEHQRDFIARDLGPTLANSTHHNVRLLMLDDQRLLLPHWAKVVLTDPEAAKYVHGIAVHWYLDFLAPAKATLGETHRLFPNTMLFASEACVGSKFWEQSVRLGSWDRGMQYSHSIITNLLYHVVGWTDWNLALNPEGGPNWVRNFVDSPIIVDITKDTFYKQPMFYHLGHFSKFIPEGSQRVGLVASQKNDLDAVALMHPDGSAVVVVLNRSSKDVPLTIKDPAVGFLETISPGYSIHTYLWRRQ

GCase [2] = molecular target: T2, GCase (Mus musculus, UniProt P17439); assay: GCase enhancement in tissues of orally dosed mice; format: in vivo, mice (C57BL/6); conditions: for GCase increase: nine doses over 2 weeks, 24-hour washout
T2 construct: Liver, spleen, lung, and brain tissues were removed; from tissue; host or cells: brain, spleen, liver, lung of C57BL/6 mice
T2 sequence (P17439 20-515): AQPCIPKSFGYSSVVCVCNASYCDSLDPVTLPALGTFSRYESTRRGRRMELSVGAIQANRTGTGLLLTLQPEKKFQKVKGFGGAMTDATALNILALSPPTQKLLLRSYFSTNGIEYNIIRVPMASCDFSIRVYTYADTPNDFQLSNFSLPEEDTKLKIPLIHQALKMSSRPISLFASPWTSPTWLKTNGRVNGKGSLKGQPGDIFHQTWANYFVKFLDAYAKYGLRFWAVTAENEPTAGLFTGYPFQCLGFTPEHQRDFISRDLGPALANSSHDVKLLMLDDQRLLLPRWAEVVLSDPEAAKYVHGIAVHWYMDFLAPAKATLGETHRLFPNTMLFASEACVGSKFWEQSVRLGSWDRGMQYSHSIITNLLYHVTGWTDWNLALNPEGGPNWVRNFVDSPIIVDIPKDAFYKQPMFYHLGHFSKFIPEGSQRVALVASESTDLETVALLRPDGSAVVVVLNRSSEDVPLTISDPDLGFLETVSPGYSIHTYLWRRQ
Description: (§1) The ability of orally administered test compounds (the hydrochloride salt form of Compound A and Compound B) to elevate GCase levels as compared to reference compound, IFG-tartrate, was assessed in mice. […] Seven animals were used per dose. The dosing solutions were prepared in water. Compounds were administered over 2 weeks as follows: week 1, Mon-Fri (On), Sat-Sun (Off); week 2, Mon-Thu (On); necropsy on Friday. Thus, a total of 9 doses (dosing solutions prepared fresh every day) were given to each mouse, with a 24-hour washout between the last dose and necropsy.
(§2) Plasma was collected by spinning blood at 2700 g for 10 minutes at 4° C. Liver, spleen, lung, and brain tissues were removed, washed in cold PBS, blotted dry, flash frozen on dry ice, and stored at −80° C. until analysis. GCase levels were measured by homogenizing approximately 50 mg tissue in 500 μL McIlvane (MI) buffer (100 mM sodium citrate, 200 mM sodium phosphate dibasic, 0.25% sodium taurocholate, and 0.1% Triton X-100, pH 5.2) at pH 5.2 for 3-5 seconds on ice with a micro homogenizer. Homogenates were then incubated at room temperature without and with 2.5 mM conduritol-B-epoxide (CBE) for 30 min. Finally, 3.7 mM 4-methylumbeliferryl-β-glucoside (4-MUG) substrate was added and incubated at 37° C. for 60 min. Reactions were stopped by addition of 0.4 M glycine, pH 10.6. Fluorescence was measured on a plate reader for 1 sec/well using 355 nm excitation and 460 nm emission. Total protein was determined in lysates using the MicroBCA kit according to the manufacturer's instructions. A 4-methylumbelliferone (4-MU) standard curve ranging from 1.0 nM to 50 μM was run in parallel for conversion of raw fluorescence data to absolute GCase activity (in the presence and absence of CBE) and expressed as nanomoles of 4-MU released per milligram of protein per hour (nmol/mg protein/hr). GCase levels and protein levels were calculated using Microsoft Excel (Redmond, Wash.) and GraphPad Prism version 4.02.

lysosomal GCase = molecular target: T3, lysosomal GCase (Homo sapiens, UniProt P04062); assay: In situ washout assay in fibroblasts (recovery of lysosomal GCase activity after compound removal); format: cell-based; conditions: fibroblasts treated at IC90 for 16-24 hours, then drug-free medium; single exponential fit
T3 construct: assayed in situ using fibroblasts established from a normal subject; endogenous in cells; host or cells: fibroblasts from a normal subject
T3 sequence (P04062 40-536): T1 sequence (P04062 40-536)
Description: Cells seeded in 48-well plates were incubated with the indicated concentrations of compound for 16-24 hours. For the dose-response assays, cells were incubated with the in situ substrate 5-(pentafluorobenzoylamino)fluorescein di-β-D-glucopyranoside (PFBFDβGlu) for 1 hour and subsequently lysed to determine the extent of substrate hydrolysis in the presence of compound. […] Inhibition was determined as the ratio of activity in the presence of compound to that in the absence of compound. […] Cells were washed extensively and incubated in drug-free medium to allow net compound efflux from cells. Cells were then tested for lysosomal GCase activity at 2 hour intervals over a total period of 8 hours following compound removal. The increase in activity over time was fitted with a single exponential function to determine the compound's washout time.

[3] = Compound concentration in brain, spleen and plasma samples of GCase enhancement study; format: in vivo, mice (C57BL/6); conditions: nine doses; for Concentration: 24 hours after last dose
Description: as §1, §2

[4] = Blood brain barrier penetration after oral administration to mice; format: in vivo, mice (C57BL/6); conditions: single 30 mg/kg (free base equivalent) p.o. dose, FIGS. 1A-C
Description: For this purpose, 8-week old wild-type male mice (C57BL/6) were administered a single 30 mg/kg (free base equivalent) p.o. dose of reference or test compound by gavage (n=3 mice per time point). Dosing solutions were prepared in water. After dosing, mice were euthanized with CO2 at the following time points: 0-, 0.5-, 1-, and 4-hour post-dose. […] Similarly, brains were collected from each mouse. Plasma was derived by spinning whole blood at 2700 g for 10 minutes at 4° C. followed by storage on dry ice. Whole brains were washed in cold PBS to remove contaminating blood, blotted dry, flash frozen on dry ice, and ultimately stored at −80° C. until analysis. To prepare brain samples for analysis, 50-100 mg of tissue was homogenized in […]. Samples were then clarified by centrifugation. Next, 25 μl of the brain homogenate supernatant or 25 μl of plasma were combined with 25 μl of acetonitrile:water (95/5). […] Between 20 and 30 μl sample was injected for analysis. […] When Compound B was analyzed, Compound A was used as internal standard (150.1/130.1). For calculating drug concentrations, raw data for plasma (ng/mL) and brain (ng/g) was converted to nM using the molecular weight of respective compounds and assuming 1 g of tissue is equivalent to 1 mL volume. Concentration as a function of time was plotted in GraphPad Prism version 4.02.

[5] = mice, nine p.o. doses over 2 weeks, result in words
[6] = brain, 10 mg/kg (free base equivalent) p.o.
[7] = spleen, 10 mg/kg (free base equivalent) p.o.

SMILES: Cl.O[C@@H]1[C@H](CF)CNC[C@H]1O [Compound A-HCl, (3R,4R,5R)-5-(fluoromethyl)piperidine-3,4-diol hydrochloride]
- melting point: 200 to 202 °C
- effect on GCase activity (GCase [1]): concentration-dependent increase in GCase activity
- enhancement of enzyme activity compared to IFG-tartrate (GCase [1]): enhanced enzyme activity to the same maximum level at much lower concentration
- GCase enhancement at lower doses compared to IFG-tartrate (GCase [2]; [5]): unexpectedly greater than that observed with IFG-tartrate even when far lower doses
- GCase enhancement in brain, spleen, liver and lung compared to control or IFG-tartrate (GCase [2]; [5]): statistically significant greater GCase enhancement in brain, spleen, liver and lung as compared to mice administered control or IFG-tartrate
- In Situ Washout (lysosomal GCase): 6.6 ± 0.12 h

SMILES: O[C@@H]1[C@H](CF)CNC[C@H]1O [Compound A, (3R,4R,5R)-5-(fluoromethyl)piperidine-3,4-diol]
- Concentration in GCase assays after dilution (value in parenthesis) ([3]; brain sample, 10 mg/kg p.o.): 0.5 nM
- Concentration in GCase assays after dilution (value in parenthesis) ([3]; brain sample, 100 mg/kg p.o.): 3 nM
- Concentration in GCase assays after dilution (value in parenthesis) ([3]; spleen sample, 10 mg/kg p.o.): 0.3 nM
- Concentration in GCase assays after dilution (value in parenthesis) ([3]; spleen sample, 100 mg/kg p.o.): 1.1 nM
- blood brain barrier crossing compared to IFG [4]: crossed the blood brain barrier more readily as compared to IFG
- GCase increase (GCase [2]; [6]): 2.5 -fold
- GCase increase (GCase [2]; brain, 100 mg/kg (free base equivalent) p.o.): 3.5 -fold
- GCase increase (GCase [2]; [7]): 1.9 -fold
- GCase increase (GCase [2]; spleen, 100 mg/kg (free base equivalent) p.o.): 2.8 -fold

SMILES: OC[C@H]1CNC[C@@H](O)[C@@H]1O [IFG, (3R,4R,5R)-5-(hydroxymethyl)-3,4-piperidinediol]
- Concentration in GCase assays after dilution (value in parenthesis) ([3]; brain sample, 10 mg/kg p.o.): 0.2 nM
- Concentration in GCase assays after dilution (value in parenthesis) ([3]; brain sample, 100 mg/kg p.o., 100 mg/kg): 0.7 nM and 1.1 nM
- Concentration ([3]; brain, 10 mg/kg p.o.): 49 ± 2.4 nM
- Concentration ([3]; brain, 100 mg/kg p.o., 100 mg/kg): 182 ± 13 nM and 287 ± 74 nM
- Concentration ([3]; plasma, 10 mg/kg p.o.): 67 ± 10 nM
- Concentration in GCase assays after dilution (value in parenthesis) ([3]; spleen sample, 10 mg/kg p.o.): 0.5 nM
- Concentration in GCase assays after dilution (value in parenthesis) ([3]; spleen sample, 100 mg/kg p.o., 100 mg/kg): 2.6 nM and 4.2 nM
- Concentration ([3]; spleen, 10 mg/kg p.o.): 150 ± 12 nM
- Concentration ([3]; spleen, 100 mg/kg p.o., 100 mg/kg): 711 ± 100 nM and 1139 ± 220 nM
- GCase increase (GCase [2]; [6]): 1.5 -fold
- GCase increase (GCase [2]; brain, 100 mg/kg (free base equivalent) p.o., 100 mg/kg): 2.2 -fold and 2.1 -fold
- GCase increase (GCase [2]; [7]): 1.6 -fold
- GCase increase (GCase [2]; spleen, 100 mg/kg (free base equivalent) p.o., 100 mg/kg): 1.9 -fold and 2.0 -fold
